Source: PubChem BioAssay AID1918956 (Molecular Pharmacology Branch, DTP, NCI, 2023)

Tested on: OVCAR-5 complex spheroids, viability
Experiment: Anticancer human tumor OVCAR-5 cell line growth inhibition;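 also: spheroids exposed to agents for seven days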;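 as to viability, T/C: 100% = DMSO vehicle control wells viability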
Settings: for IC50: curve of first compound; for viability, T/C: stronger effect = lower value
Method in brief: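 Multicellular complex spheroids of tumor cells with human endothelial cells (HUVEC) and mesenchymal stem cells; the LSD1 inhibitor iadademstat was combined with standard-of-care or investigational agents. Top concentration at or near clinical Cmax, half-log dilutions; final DMSO ≤0.25%.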

[1] = second compound 0.1 µM, first compound 0.00316 µM
[2] = second compound 0.1 µM, first compound 0.01 µM
[3] = second compound 0.1 µM, first compound 0.0316 µM
[4] = second compound 0.1 µM, first compound 0.1 µM
[5] = second compound 0.1 µM, first compound 0.316 µM
[6] = second compound 0.1 µM, first compound 1 µM
[7] = second compound 0.316 µM, first compound 0.00316 µM
[8] = second compound 0.316 µM, first compound 0.01 µM
[9] = second compound 0.316 µM, first compound 0.0316 µM
[10] = second compound 0.316 µM, first compound 0.1 µM
[11] = second compound 0.316 µM, first compound 0.316 µM
[12] = second compound 0.316 µM, first compound 1 µM
[13] = second compound 1 µM, first compound 0.00316 µM
[14] = second compound 1 µM, first compound 0.01 µM
[15] = second compound 1 µM, first compound 0.0316 µM
[16] = second compound 1 µM, first compound 0.1 µM
[17] = second compound 1 µM, first compound 0.316 µM
[18] = second compound 1 µM, first compound 1 µM
[19] = second compound 3.16 µM, first compound 0.00316 µM
[20] = second compound 3.16 µM, first compound 0.01 µM
[21] = second compound 3.16 µM, first compound 0.0316 µM
[22] = second compound 3.16 µM, first compound 0.1 µM
[23] = second compound 3.16 µM, first compound 0.316 µM
[24] = second compound 3.16 µM, first compound 1 µM
[25] = second compound 10 µM, first compound 0.00316 µM
[26] = second compound 10 µM, first compound 0.01 µM
[27] = second compound 10 µM, first compound 0.0316 µM
[28] = second compound 10 µM, first compound 0.1 µM
[29] = second compound 10 µM, first compound 0.316 µM
[30] = second compound 10 µM, first compound 1 µM

SMILES: CC1COCCN1c1cc(-c2ccnn2C)c2ccnc(-c3ccn[nH]3)c2n1 (stereo not given) + NC1CCC(NC2CC2c2ccccc2)CC1
- IC50 (second compound 0.1 µM): 0.0618 µM
- IC50 (second compound 0.316 µM): 0.0619 µM
- IC50 (second compound 1 µM): 0.0814 µM
- IC50 (second compound 3.16 µM): 0.0711 µM
- IC50 (second compound 10 µM): 0.0477 µM
- viability, T/C [1]: 111%
- viability, T/C [2]: 86.9%
- viability, T/C [3]: 60.4%
- viability, T/C [4]: 41.7%
- viability, T/C [5]: 37.2%
- viability, T/C [6]: 31.6%
- viability, T/C [7]: 110%
- viability, T/C [8]: 87.7%
- viability, T/C [9]: 61.2%
- viability, T/C [10]: 41%
- viability, T/C [11]: 37.4%
- viability, T/C [12]: 32%
- viability, T/C [13]: 104%
- viability, T/C [14]: 88.8%
- viability, T/C [15]: 65.2%
- viability, T/C [16]: 46.2%
- viability, T/C [17]: 39.4%
- viability, T/C [18]: 34.7%
- viability, T/C [19]: 83.8%
- viability, T/C [20]: 83.4%
- viability, T/C [21]: 60.1%
- viability, T/C [22]: 46.8%
- viability, T/C [23]: 40.7%
- viability, T/C [24]: 35.8%
- viability, T/C [25]: 79.1%
- viability, T/C [26]: 65.9%
- viability, T/C [27]: 55%
- viability, T/C [28]: 41.9%
- viability, T/C [29]: 37.8%
- viability, T/C [30]: 33.3%

SMILES: CC[C@@]1(O)C(=O)OCc2c1cc1n(c2=O)Cc2cc3c(CN(C)C)c(O)ccc3nc2-1 + NC1CCC(NC2CC2c2ccccc2)CC1
- IC50 (second compound 0.1 µM): 0.00566 µM
- IC50 (second compound 0.316 µM): 0.0109 µM
- IC50 (second compound 1 µM): 0.0112 µM
- IC50 (second compound 3.16 µM): 0.0121 µM
- IC50 (second compound 10 µM): 0.00989 µM
- viability, T/C (second compound 0.1 µM, first compound 0.000316 µM): 103%
- viability, T/C (second compound 0.1 µM, first compound 0.001 µM): 105%
- viability, T/C [1]: 58.8%
- viability, T/C [2]: 50.2%
- viability, T/C [3]: 48%
- viability, T/C [4]: 23.4%
- viability, T/C (second compound 0.316 µM, first compound 0.000316 µM): 112%
- viability, T/C (second compound 0.316 µM, first compound 0.001 µM): 97.7%
- viability, T/C [7]: 56.5%
- viability, T/C [8]: 49.8%
- viability, T/C [9]: 50%
- viability, T/C [10]: 24%
- viability, T/C (second compound 1 µM, first compound 0.000316 µM): 105%
- viability, T/C (second compound 1 µM, first compound 0.001 µM): 93.3%
- viability, T/C [13]: 56.9%
- viability, T/C [14]: 51.2%
- viability, T/C [15]: 47.7%
- viability, T/C [16]: 26.7%
- viability, T/C (second compound 3.16 µM, first compound 0.000316 µM): 109%
- viability, T/C (second compound 3.16 µM, first compound 0.001 µM): 98.5%
- viability, T/C [19]: 62.4%
- viability, T/C [20]: 51.3%
- viability, T/C [21]: 49.3%
- viability, T/C [22]: 28.2%
- viability, T/C (second compound 10 µM, first compound 0.000316 µM): 91.1%
- viability, T/C (second compound 10 µM, first compound 0.001 µM): 85.5%
- viability, T/C [25]: 51.8%
- viability, T/C [26]: 49.3%
- viability, T/C [27]: 48.7%
- viability, T/C [28]: 27.7%

SMILES: NS(=O)(=O)OCC1CC(n2ccc3c(NC4CCc5ccccc54)ncnc32)CC1O (stereo not given) + NC1CC1c1ccc(-c2cccc(O)c2)cc1
- IC50 (second compound 0.1 µM): 0.186 µM
- IC50 (second compound 0.316 µM): 0.178 µM
- IC50 (second compound 1 µM): 0.145 µM
- IC50 (second compound 3.16 µM): 0.156 µM
- IC50 (second compound 10 µM): 0.0839 µM
- viability, T/C (second compound 0.1 µM, first compound 0.00949 µM): 145%
- viability, T/C (second compound 0.1 µM, first compound 0.03 µM): 133%
- viability, T/C (second compound 0.1 µM, first compound 0.0949 µM): 84.2%
- viability, T/C (second compound 0.1 µM, first compound 0.3 µM): 25.6%
- viability, T/C (second compound 0.1 µM, first compound 0.949 µM): 8.27%
- viability, T/C (second compound 0.1 µM, first compound 3 µM): 5.16%
- viability, T/C (second compound 0.316 µM, first compound 0.00949 µM): 152%
- viability, T/C (second compound 0.316 µM, first compound 0.03 µM): 149%
- viability, T/C (second compound 0.316 µM, first compound 0.0949 µM): 79.6%
- viability, T/C (second compound 0.316 µM, first compound 0.3 µM): 26.9%
- viability, T/C (second compound 0.316 µM, first compound 0.949 µM): 22.2%
- viability, T/C (second compound 0.316 µM, first compound 3 µM): 4.93%
- viability, T/C (second compound 1 µM, first compound 0.00949 µM): 117%
- viability, T/C (second compound 1 µM, first compound 0.03 µM): 145%
- viability, T/C (second compound 1 µM, first compound 0.0949 µM): 72%
- viability, T/C (second compound 1 µM, first compound 0.3 µM): 25%
- viability, T/C (second compound 1 µM, first compound 0.949 µM): 7.9%
- viability, T/C (second compound 1 µM, first compound 3 µM): 4.8%
- viability, T/C (second compound 3.16 µM, first compound 0.00949 µM): 141%
- viability, T/C (second compound 3.16 µM, first compound 0.03 µM): 126%
- viability, T/C (second compound 3.16 µM, first compound 0.0949 µM): 69.7%
- viability, T/C (second compound 3.16 µM, first compound 0.3 µM): 23.8%
- viability, T/C (second compound 3.16 µM, first compound 0.949 µM): 7.78%
- viability, T/C (second compound 3.16 µM, first compound 3 µM): 4.11%
- viability, T/C (second compound 10 µM, first compound 0.00949 µM): 131%
- viability, T/C (second compound 10 µM, first compound 0.03 µM): 101%
- viability, T/C (second compound 10 µM, first compound 0.0949 µM): 42.7%
- viability, T/C (second compound 10 µM, first compound 0.3 µM): 16.2%
- viability, T/C (second compound 10 µM, first compound 0.949 µM): 6.76%
- viability, T/C (second compound 10 µM, first compound 3 µM): 4.61%

SMILES: CC(C)c1c(-c2ccccc2)nc2c(C#N)c[nH]n2c1=O + NC1CC1c1ccc(-c2cccc(O)c2)cc1
- IC50 (second compound 0.1 µM): > 10 µM
- IC50 (second compound 0.316 µM): > 10 µM
- IC50 (second compound 1 µM): > 10 µM
- IC50 (second compound 3.16 µM): > 10 µM
- IC50 (second compound 10 µM): > 10 µM
- viability, T/C [3]: 92.2%
- viability, T/C [4]: 98.4%
- viability, T/C [5]: 97.4%
- viability, T/C [6]: 98.4%
- viability, T/C (second compound 0.1 µM, first compound 3.16 µM): 99.9%
- viability, T/C (second compound 0.1 µM, first compound 10 µM): 107%
- viability, T/C [9]: 98%
- viability, T/C [10]: 96%
- viability, T/C [11]: 102%
- viability, T/C [12]: 102%
- viability, T/C (second compound 0.316 µM, first compound 3.16 µM): 98%
- viability, T/C (second compound 0.316 µM, first compound 10 µM): 108%
- viability, T/C [15]: 87%
- viability, T/C [16]: 90%
- viability, T/C [17]: 97.1%
- viability, T/C [18]: 105%
- viability, T/C (second compound 1 µM, first compound 3.16 µM): 96.1%
- viability, T/C (second compound 1 µM, first compound 10 µM): 104%
- viability, T/C [21]: 88.3%
- viability, T/C [22]: 95.4%
- viability, T/C [23]: 77.8%
- viability, T/C [24]: 95.6%
- viability, T/C (second compound 3.16 µM, first compound 3.16 µM): 88.8%
- viability, T/C (second compound 3.16 µM, first compound 10 µM): 98.9%
- viability, T/C [27]: 82.2%
- viability, T/C [28]: 91%
- viability, T/C [29]: 80.5%
- viability, T/C [30]: 87.5%
- viability, T/C (second compound 10 µM, first compound 3.16 µM): 87.7%
- viability, T/C (second compound 10 µM, first compound 10 µM): 73.5%
